Results reported in patent publication US20100215579A1, “PHEN-NAPHTHALENE AND PHEN-QUINOLINE DERIVATIVES AND THEIR USE FOR BINDING AND IMAGING AMYLOID PLAQUES” (The Trustees of the University of Pennsylvania, priority 2007, published 2010).

These compounds were tested against T1, amyloid plaques (Homo sapiens, UniProt P05067) (assay: Ki values of Phen-Nap, Nap-Phen derivatives (Ki binding data)).
T1 construct: fibrillary Aβ plaques consisting predominately of aggregates of Aβ40 and Aβ42 peptides
T1 sequence (P05067 672-713 limits assumed): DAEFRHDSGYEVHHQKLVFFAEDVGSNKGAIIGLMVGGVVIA
T1 sequence (P05067 672-711 limits assumed): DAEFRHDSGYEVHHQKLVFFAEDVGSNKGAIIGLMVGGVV

Row | SMILES | Ki [nM]
1 | Nc1ccc(-c2ccc3cc(OCCOCCOCCF)ccc3c2)cc1 [Compound 11a, 4-(6-(2-(2-(2-fluoroethoxy)ethoxy)ethoxy)naphthalen-2-yl)benzenamine] | 12.5 ± 1.2
2 | Nc1ccc(-c2ccc3cc(OCCOCCOCCO)ccc3c2)cc1 [Compound 11b, 2-(2-(2-(6-(4-aminophenyl)naphthalen-2-yloxy)ethoxy)ethoxy)ethanol] | 22
3 | CN(C)c1ccc(-c2ccc3cc(OCCOCCOCCF)ccc3c2)cc1 [Compound 12a, 4-(6-(2-(2-(2-fluoroethoxy)ethoxy)ethoxy)naphthalen-2-yl)-N,N-dimethylbenzenamine] | 3.1
4 | CNc1ccc(-c2ccc3cc(OCCOCCOCCO)ccc3c2)cc1 [Compound 13b, 2-(2-(2-(6-(4-(methylamino)phenyl)naphthalen-2-yloxy)ethoxy)ethoxy)ethanol] | 1
5 | Nc1ccc2cc(-c3ccc(O)cc3)ccc2c1 [Compound 16, 4-(6-aminonaphthalen-2-yl)phenol] | 33.5 ± 11
6 | Nc1ccc2cc(-c3ccc(OCCOCCOCCF)cc3)ccc2c1 [Compound 17a, 6-(4-(2-(2-(2-fluoroethoxy)ethoxy)ethoxy)phenyl)naphthalen-2-amine] | 20 ± 5
7 | Nc1ccc2cc(-c3ccc(OCCOCCOCCO)cc3)ccc2c1 [Compound 17b, 2-(2-(2-(4-(6-aminonaphthalen-2-yl)phenoxy)ethoxy)ethoxy)ethanol] | 27
8 | CN(C)c1ccc2cc(-c3ccc(OCCOCCOCCF)cc3)ccc2c1 [Compound 18a, 6-(4-(2-(2-(2-fluoroethoxy)ethoxy)ethoxy)phenyl)-N,N-dimethylnaphthalen-2-amine] | 5.6
9 | CN(C)c1ccc2cc(-c3ccc(OCCOCCOCCO)cc3)ccc2c1 [Compound 18b, 2-(2-(2-(4-(6-(dimethylamino)naphthalen-2-yl)phenoxy)ethoxy)ethoxy)ethanol] | 6.5
10 | COc1ccc(-c2ccc3cc(N(C)C)ccc3c2)cc1 [Compound 23, 6-(4-methoxyphenyl)-N,N-dimethylnaphthalen-2-amine] | 1.4
11 | CN(C)c1ccc2cc(-c3ccc(O)cc3)ccc2c1 [Compound 24, 4-(6-(dimethylamino)naphthalen-2-yl)phenol] | 4.2
12 | COc1ccc(-c2ccc3cc(O)ccc3c2)cc1 [Compound 25, 6-(4-methoxyphenyl)naphthalen-2-ol] | 1.5
13 | Oc1ccc(-c2ccc3cc(OCCOCCOCCF)ccc3c2)cc1 [Compound 26, 4-(6-(2-(2-(2-fluoroethoxy)ethoxy)ethoxy)naphthalen-2-yl)phenol] | 16.5
14 | Oc1ccc2cc(-c3ccc(OCCOCCOCCF)cc3)ccc2c1 [Compound 28, 6-(4-(2-(2-(2-fluoroethoxy)ethoxy)ethoxy)phenyl)naphthalen-2-ol] | 16

Other lines, results leading:

Row | Ki [nM] | SMILES
15 | 3 | CNc1ccc2cc(-c3ccc(OCCOCCOCCF)cc3)ccc2c1 [Compound 19a, 6-(4-(2-(2-(2-fluoroethoxy)ethoxy)ethoxy)phenyl)-N-methylnaphthalen-2-amine]
16 | 6 | CNc1ccc2cc(-c3ccc(OCCOCCOCCO)cc3)ccc2c1 [Compound 19b, 2-(2-(2-(4-(6-(methylamino)naphthalen-2-yl)phenoxy)ethoxy)ethoxy)ethanol]
17 | 4.4 | CN(C)c1ccc(-c2ccc3nc(OCCOCCOCCF)ccc3c2)cc1 [Compound 32a, 4-(2-(2-(2-(2-fluoroethoxy)ethoxy)ethoxy)quinolin-6-yl)-N,N-dimethylbenzenamine]
18 | 4.7 | CN(C)c1ccc(-c2ccc3nc(OCCOCCOCCO)ccc3c2)cc1 [Compound 32b, 2-(2-(2-(6-(4-(dimethylamino)phenyl)quinolin-2-yloxy)ethoxy)ethoxy)ethanol]
19 | 102 ± 32 | Nc1ccc(-c2ccc3nc(OCCOCCOCCF)ccc3c2)cc1 [Compound 33a, 4-(2-(2-(2-(2-fluoroethoxy)ethoxy)ethoxy)quinolin-6-yl)benzenamine]
20 | 109 | Nc1ccc(-c2ccc3nc(OCCOCCOCCO)ccc3c2)cc1 [Compound 33b, 2-(2-(2-(6-(4-aminophenyl)quinolin-2-yloxy)ethoxy)ethoxy)ethanol]
21 | 5.5 | CNc1ccc(-c2ccc3nc(OCCOCCOCCF)ccc3c2)cc1 [Compound 34a, 4-(2-(2-(2-(2-fluoroethoxy)ethoxy)ethoxy)quinolin-6-yl)-N-methylbenzenamine]
22 | 5 | CNc1ccc(-c2ccc3nc(OCCOCCOCCO)ccc3c2)cc1 [Compound 34b, 2-(2-(2-(6-(4-(methylamino)phenyl)quinolin-2-yloxy)ethoxy)ethoxy)ethanol]
